According to patent US20240067702A1, “LACTAM-MODIFIED P[…]” (DONGBAO PURPLE STAR (HANGZHOU) BIOPHARMACEUTICAL CO., LTD., priority 2020, published 2024):
Like-named read-outs stand apart in the source and are kept apart here. *1 amine or outer side, *2 acyl side, *3 side chain or, on linkers, in order; H or OH if unused. Where a SMILES comes first, the peptide text is derived from it. Bridges are numbered along the chain shown (N, C = ends). Side-chain parts run from the residue outwards. [ ]: non-standard residue; d: D form. The star is where a group is joined. C20 diacid = O=C(O)CCCCCCCCCCCCCCCCCCC(=O)*; γGlu = O=C(O)[C@H](CCC(=O)[*:2])N[*:1]; AEEA = NCCOCCOCC(=O)O; Aib = CC(C)(N)C(=O)O

Tests used:
GIPR = molecular target: T1, GIPR (Homo sapiens, UniProt P48546); experiment: GIPR agonist activity test in vitro (cAMP assay); type: cell-based; conditions: CHO host cell
T1 construct: host or cells: CHO
T1 sequence (P48546 22-466): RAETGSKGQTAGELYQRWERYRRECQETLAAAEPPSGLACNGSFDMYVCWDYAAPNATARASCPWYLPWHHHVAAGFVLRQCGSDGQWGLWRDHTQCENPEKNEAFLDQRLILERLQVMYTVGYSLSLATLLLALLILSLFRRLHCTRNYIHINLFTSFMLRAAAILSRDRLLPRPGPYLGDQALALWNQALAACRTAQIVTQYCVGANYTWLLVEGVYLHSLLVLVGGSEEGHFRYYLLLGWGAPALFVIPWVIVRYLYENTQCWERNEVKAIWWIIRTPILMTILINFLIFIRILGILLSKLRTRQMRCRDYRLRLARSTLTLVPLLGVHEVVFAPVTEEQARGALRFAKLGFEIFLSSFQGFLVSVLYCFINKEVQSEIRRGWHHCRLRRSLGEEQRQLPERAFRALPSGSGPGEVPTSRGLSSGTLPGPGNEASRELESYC
Protocol: The cell strains were constructed by Shanghai WuXi AppTec.
The test compound was serially diluted 4-fold with 10 points. The initial concentration was 30 μM, and the dilution was completed with Bravo.
1) 100 nL of the compound was transferred to OptiPlate-384 plate using Echo.
7) The GLP-1R/GIPR cell concentration was diluted to 2.0*10^5/mL with the experimental buffer.
8) […] of the diluted cell suspension was transferred into the OptiPlate-384 plate.
9) The diluted cell suspension was incubated at room temperature for 30 minutes.
2) 10 μL of cAMP detection reagent was added.
3) The OptiPlate-384 plate was covered with TopSeal-A film and incubated at room temperature for 60 minutes.
TopSeal-A was removed and read in EnVision.

[1] = Plasma stability (PLS) test, human plasma; type: in vitro ADME; conditions: up to 120 min, read-out: PLS (H/M) T1/2, H; for half-life at 2 μM: pH 7.4, 37° C.
[2] = Pharmacokinetic evaluation in cynomolgus monkeys; type: in vivo; conditions: cynomolgus monkey, 0.02 mg/kg, single SC 0.02 mpk; for half-life: read-out: Half-life T1/2 (converted); for AUC(0-t): read-out: SC Concentration Integral AUC0-240 h
Protocol: To test the pharmacokinetics of compounds in cynomolgus monkeys in vivo
The pharmacokinetic characteristics of the compounds in mammals after intravenous injection and subcutaneous injection were tested according to the standard protocol. In the experiment, the candidate compounds were formulated into clear solutions, and a single subcutaneous injection (SC, 0.02 mpk) was given to the cynomolgus monkeys. The vehicle for subcutaneous injection was citrate buffer (20 mM, pH=7). Whole blood was collected and prepared to obtain plasma. Drug concentration was analyzed by LC-MS/MS method, and pharmacokinetic parameters were calculated by Phoenix WinNonlin software.

[3] = Plasma stability (PLS) test, mouse plasma; type: in vitro ADME; conditions: up to 120 min, read-out: PLS (H/M) T1/2; for half-life at 2 μM: pH 7.4, 37° C.
Protocol: To study the stability of test compounds in the plasma of normal mice.
1. Before the experiment, the coagulated frozen plasma was thawed in a water bath at 37° C. Plasma was centrifuged at 4000 rpm for 5 min. If there was blood clot, the blood clot was removed and the pH value was adjusted to 7.4±0.1.
2. Preparation of the test compound solution: 100 μM of the solution was prepared by dilution with DMSO.
3. 98 μL of blank control plasma was added to 2 μL of the test compound solution (100 μM), so that the final concentration of the mixed solution of the two reached 2 μM, and the mixed solution was placed in a 37° C. water bath for incubation.
4. At each time point (0, 10, 30, 60, and 120 min), 1(X) μL of H3PO4 solution and 800 μL of stop solution (200 ng/mL of tolbutamide and 200 ng/mL of labetalol in 100% methanol solution) were added to precipitate protein, and mixed thoroughly.
5. The samples were centrifuged at 4000 rpm for 20 min, and 1(X) μL of supernatant was taken from each well for LC-MS/MS analysis.

[4] = Plasma protein binding (PPB) test, mouse; type: in vitro ADME
Protocol: To study the binding of the test compounds to human/mouse plasma albumin.
1. Matrix preparation: On the day of the experiment, the plasma was thawed in cold water and centrifuged at 3220 rpm for 5 min to remove all blood clots. The pH of the obtained plasma was measured and adjusted to 7.4±0.1 using 1% phosphoric acid or 1N sodium hydroxide as needed.
2. Dilution steps of the test compounds: The test compounds were dissolved in dimethyl sulfoxide (DMSO) to prepare stock solutions at concentrations of 10 mM and 2 mM, respectively. A 40 μM working solution was prepared by diluting 2 μL of the stock solution (2 mM) with 98 μL of DMSO. A 400 μM working solution of the control compound was prepared by diluting 10 μL of the stock solution with 240 μL of DMSO. The working solution of the compound (5 μL) was mixed with the blank matrix (995 μL) at a ratio of 1:200 to prepare the loading matrix.
3.1 An equal amount of 30 μL of the loading matrix (n=2) was transferred to the sample collection plate to prepare samples of time 0 (TO) for residue determination. The samples were immediately matched to the corresponding blank buffer in a final volume of 60 μL with a 1:1 volume ratio of plasma to buffer in each well. Then, 60 μL of 4% H3PO4 in H2O and 480 μL of stop solution containing an internal standard were then added to the TO samples of the test compounds. They were then stored at 2-8° C. with other samples pending for further processing.
3.2 The remaining plasma samples were pre-incubated in a carbon dioxide incubator at 37±1° C. for 30 min. The prepared protein-free samples (F samples) and loading matrix samples (230 μL) were transferred to polycarbonate tubes (n=2) and ultracentrifuged at 37° C. and 155000×g (35000 rpm) for 4 hours.
3.3 To prepare T samples (test samples), an additional matrix-containing sample was transferred to a separate 96-well plate (sample incubation plate) and incubated at 37° C. for 4 hours.
3.4 After centrifugation, 30 μL of protein-free sample and 30 μL of T sample were transferred from the second layer of supernatant (below the upper layer) to a new sample collection plate. Each sample was mixed with the corresponding blank buffer or matrix in a final volume of 60 μL with a matrix:buffer volume ratio of 1:1. 60 μL of 4% H3PO4 aqueous solution and 480 μL of stop solution (containing internal standard) were added to all samples. The mixture was centrifuged at 4000 rpm for 20 min, and 100 μL of the supernatant of each sample was taken for LC-MS/MS analysis.

[5] = GIPR Agonist Activity EC50 (−) 1% HSA, without 1% HSA

SMILES | EC50 (GIPR; GIPR Agonist Activity EC50 (+) 1% HSA, with 1% HSA) | EC50 (GIPR; [5]) | half-life at 2 μM [1] | Cmax ([2]; plasma) | Tmax ([2]; plasma) | half-life ([2]; plasma) | AUC(0-t) ([2]; plasma) | half-life at 2 μM [3] | fraction unbound ([4]; ultracentrifugation, read-out: PPB % unbound (H/M)) | half-life ([1]; 2 μM, 37° C.) | Cmax ([2]; in vivo) | Tmax ([2]; in vivo) | half-life ([2]; in vivo) | AUC(0-t) ([2]; in vivo) | half-life ([3]; 2 μM, 37° C.) | fraction unbound at 4 h, 0.2 μM ([4]; pH 7.4, ultracentrifugation)
CC[C@H](C)[C@H](NC(=O)[C@H](CC(C)C)NC(=O)[C@H](Cc1c[nH]c2ccccc12)NC(=O)[C@@H]1CCC(=O)NCCCC[C@H](NC(=O)[C@H](CCC(N)=O)NC(=O)[C@H](C)NC(=O)[C@H](CCCCNC(=O)COCCOCCNC(=O)COCCOCCNC(=O)CC[C@H](NC(=O)CCCCCCCCCCCCCCCCCCC(=O)O)C(=O)O)NC(=O)[C@H](CCCCN)NC(=O)[C@H](CC(=O)O)NC(=O)[C@H](CC(C)C)NC(=O)C(C)(C)NC(=O)[C@@H](NC(=O)[C@H](CO)NC(=O)[C@H](Cc2ccc(O)cc2)NC(=O)[C@H](CC(=O)O)NC(=O)[C@H](CO)NC(=O)[C@@H](NC(=O)[C@H](Cc2ccccc2)NC(=O)[C@@H](NC(=O)CNC(=O)[C@H](CCC(=O)O)NC(=O)C(C)(C)NC(=O)[C@@H](N)Cc2ccc(O)cc2)[C@@H](C)O)[C@@H](C)O)[C@@H](C)CC)C(=O)N[C@@H](C)C(=O)N[C@@H](Cc2ccccc2)C(=O)N[C@@H](C(C)C)C(=O)N1)C(=O)N[C@@H](C)C(=O)NCC(=O)NCC(=O)N1CCC[C@H]1C(=O)N[C@@H](CO)C(=O)N[C@@H](CO)C(=O)NCC(=O)N[C@@H](C)C(=O)N1CCC[C@H]1C(=O)N1CCC[C@H]1C(=O)N1CCC[C@H]1C(=O)N[C@@H](CO)C(N)=O [WX-001] (H-Y[Aib]EGTFTSDYSI[Aib]LDKK([AEEA-AEEA-γGlu-C20 diacid])AQKAFVEWLIAGGPSSGAPPPS-NH2; lactam 20-24) | 23 nM | 0.44 nM | > 4.82 h | 30 nM | 21 h | 80 h | 3.97 µM·h | > 4.82 h | – | – | – | – | – | – | – | –
CC[C@H](C)[C@H](NC(=O)[C@H](CC(C)C)NC(=O)[C@H](Cc1c[nH]c2ccccc12)NC(=O)[C@@H]1CCC(=O)NCCCC[C@H](NC(=O)[C@H](CCC(N)=O)NC(=O)[C@H](C)NC(=O)[C@H](CCCCNC(=O)COCCOCCNC(=O)COCCOCCNC(=O)CC[C@H](NC(=O)CC[C@H](NC(=O)CCCCCCCCCCCCCCCCCCC(=O)O)C(=O)O)C(=O)O)NC(=O)[C@H](CCCCN)NC(=O)[C@H](CC(=O)O)NC(=O)[C@H](CC(C)C)NC(=O)C(C)(C)NC(=O)[C@@H](NC(=O)[C@H](CO)NC(=O)[C@H](Cc2ccc(O)cc2)NC(=O)[C@H](CC(=O)O)NC(=O)[C@H](CO)NC(=O)[C@@H](NC(=O)[C@H](Cc2ccccc2)NC(=O)[C@@H](NC(=O)CNC(=O)[C@H](CCC(=O)O)NC(=O)C(C)(C)NC(=O)[C@@H](N)Cc2ccc(O)cc2)[C@@H](C)O)[C@@H](C)O)[C@@H](C)CC)C(=O)N[C@@H](C)C(=O)N[C@@H](Cc2ccccc2)C(=O)N[C@@H](C(C)C)C(=O)N1)C(=O)N[C@@H](C)C(=O)NCC(=O)NCC(=O)N1CCC[C@H]1C(=O)N[C@@H](CO)C(=O)N[C@@H](CO)C(=O)NCC(=O)N[C@@H](C)C(=O)N1CCC[C@H]1C(=O)N1CCC[C@H]1C(=O)N1CCC[C@H]1C(=O)N[C@@H](CO)C(N)=O [WX-002] (H-Y[Aib]EGTFTSDYSI[Aib]LDKK([AEEA-AEEA-γGlu-γGlu-C20 diacid])AQKAFVEWLIAGGPSSGAPPPS-NH2; lactam 20-24) | – | 0.29 nM | – | – | – | – | – | – | 0.0021 | > 4.82 h | 33 nM | 29 h | 81 h | 4.58 µM·h | > 4.82 h | –
CC[C@H](C)[C@H](NC(=O)[C@H](CC(C)C)NC(=O)[C@H](Cc1c[nH]c2ccccc12)NC(=O)[C@@H]1CCC(=O)NCCCC[C@H](NC(=O)[C@H](CCC(N)=O)NC(=O)[C@H](C)NC(=O)[C@H](CCCCNC(=O)COCCOCCNC(=O)COCCOCCNC(=O)CC[C@H](NC(=O)CCCCCCCCCCCCCCCCCCC(=O)O)C(=O)O)NC(=O)[C@H](CCCCN)NC(=O)[C@H](CC(=O)O)NC(=O)[C@H](CC(C)C)NC(=O)C(C)(C)NC(=O)[C@@H](NC(=O)[C@H](CO)NC(=O)[C@H](Cc2ccc(O)cc2)NC(=O)[C@H](CC(=O)O)NC(=O)[C@H](CO)NC(=O)[C@@H](NC(=O)[C@H](Cc2ccccc2)NC(=O)[C@@H](NC(=O)CNC(=O)[C@H](CCC(=O)O)NC(=O)C(C)(C)NC(=O)[C@@H](N)Cc2ccc(O)cc2)[C@@H](C)O)[C@@H](C)O)[C@@H](C)CC)C(=O)N[C@@H](CCC(=O)O)C(=O)N[C@@H](Cc2ccccc2)C(=O)N[C@@H](C(C)C)C(=O)N1)C(=O)N[C@@H](C)C(=O)NCC(=O)NCC(=O)N1CCC[C@H]1C(=O)N[C@@H](CO)C(=O)N[C@@H](CO)C(=O)NCC(=O)N[C@@H](C)C(=O)N1CCC[C@H]1C(=O)N1CCC[C@H]1C(=O)N1CCC[C@H]1C(=O)N[C@@H](CO)C(N)=O [WX-005] (H-Y[Aib]EGTFTSDYSI[Aib]LDKK([AEEA-AEEA-γGlu-C20 diacid])AQKEFVEWLIAGGPSSGAPPPS-NH2; lactam 20-24) | – | 0.22 nM | > 4.82 h | 31 nM | 40 h | 98 h | 4.55 µM·h | > 4.82 h | – | – | – | – | – | – | – | 0.0022
